Experiments:
Type in all cases: cell-based
[1] = tested on: KRAS G12D mutant human metastatic pancreatic cancer cell AsPc-1; test: 3D cell proliferation inhibition assay, AsPc-1; conditions: ASPC1, 168 h, 3D culture, 7 days, CTG
Description: (§1) Test Example 6: 3D Cell Proliferation Inhibition Assay
(§2) The inhibitory effects of the compounds on 3D cell proliferation were investigated on KRAS G12C mutant human non-small cell lung cancer cell NCI-H358, KRAS G12D mutant human lung cancer cell A427, KRAS G12D mutant human gastric cancer cell AGS, KRAS G12D mutant human metastatic pancreatic cancer cell AsPc-1, KRAS G12V mutant human lung squamous carcinoma cell SW900, KRAS G12V mutant human colorectal cancer cell SW620, KRAS G13D mutant human colorectal cancer epithelial cell DLD-1, and KRAS WT human gastric cancer cell MKN1. The specific procedures were as follows:
(§3) 10 μL of each compound solution diluted in a gradient was added to corresponding wells of a 96-well low-adsorption microplate (PerkinElmer), so that the final concentrations of the test compounds in the reaction system were in a range of 10000-0.026 nM. The final concentration of DMSO was 0.2%. Then 90 µL of cells were correspondingly seeded into each well to achieve a cell density of 5×10^2 cells/well (the cell density of SW900 was 5×10^3 cells/well, and the cell density of MKN1 was 1×10^3 cells/well). In addition to test wells for the test compounds, both a DMSO control well and a medium control well were set, with the DMSO control well containing DMSO and cells and the medium well containing only a medium. After the sample loading, the 96-well low-adsorption microplate was incubated in an incubator at 37° C. with […] for 7 days. After 7 days, the microplate was taken out, and 100 μL of CTG reagent (Promega) was added to each well. The plate was incubated at room temperature for 60 m and read on a microplate reader EnVision by the chemiluminescence program. The inhibition rates of the compounds at each concentration were calculated using the formula for the percentage inhibition of cell proliferation: inhibition rate 00=(mean value of DMSO control group−single concentration reading value of compound)/(mean value of DMSO control group−mean value of medium control group)×100. Then non-linear curve fillings for logarithmic concentration-inhibition rate were performed by GraphPad Prism 8, and the IC50 values of the compounds were obtained (Table 6).

[2] = tested on: KRAS G12V mutant human lung squamous carcinoma cell SW900; test: 3D cell proliferation inhibition assay, SW900; conditions: SW900, 168 h, 3D culture, 7 days, CTG
Description: as §1, §2, §3

[3] = tested on: KRAS WT human gastric cancer cell MKN1; test: 3D cell proliferation inhibition assay, MKN1; conditions: MKN-1, 168 h, 3D culture, 7 days, CTG
Description: as §1, §2, §3

[4] = target: T1, KRAS G12V protein in SW900 cells (Homo sapiens, UniProt P01116, G12V); test: KRAS degradation assay (Western Blot) in SW900 cells; conditions: 24 h
T1 construct: endogenous in cells; host or cells: SW900
Description: (§4) Test Example 5: KRAS G12C, KRAS G12D, KRAS G12V, KRAS G13D, and KRAS WT (Expanded) Degradation Assays
(§5) The degradation effect of the compounds on KRAS was investigated on KRAS G12C mutant human non-small cell lung cancer cell NCI-H358, KRAS G12D mutant human metastatic pancreatic cancer cell AsPc-1, KRAS G12D mutant human lung cancer cell A427, KRAS G12V mutant human colorectal cancer cell SW620, KRAS G12V mutant human lung cancer cell SW900, KRAS G13D mutant human colorectal cancer epithelial cell DLD-1, and KRAS WT human gastric cancer cell MKN-1. The specific procedures were as follows: 0.95 mL of cells were seeded into each well of a 24-well cell culture plate to achieve a cell density of 5×10^5 cells/well; and the cell plate was incubated in an incubator at 37° C. with 5% CO2 overnight. Then 50 μL of the compound solution after dilution was added to each of the wells with the corresponding cells, so that the final concentration of the compound was in a range of 0.03-3000 nM. The final concentration of DMSO was 0.25%. After the compounds were added, the cell plate was incubated in an incubator at 37° C. with 5% CO2 for 24 h. The culture medium in the 24-well cell culture plate was then removed, and the plate was washed twice with 1×PBS (KeyGEN). 120 μL of RIPA (strong) lysis buffer (Beyotime) (supplemented with 1 mM phenylmethylsulfonyl fluoride, a protease inhibitor mixture (Beyotime), and a protease phosphatase inhibitor mixture (Beyotime)) was added to lyse adherent SW900 cells at the bottom of the cell culture plate. After the plate was left to stand on ice for 30 min, the protein lysate in each well was transferred to a 1.5 mL centrifuge tube and centrifuged at 15000 g for 20 min at 4° C. The cell lysate supernatants after centrifugation were cryopreserved in a refrigerator at −80° C. for later use.
(§6) After the samples of the cell lysate supernatants that had been prepared were thawed from the refrigerator at −80° C., the total protein concentrations of the cell lysates were determined using a BCA protein quantification kit (Tiangen). The total protein concentrations of the samples were then adjusted to 0.5 μg/μL with PBS and 5×SDS-PAGE protein loading buffer (Beyotime), and the samples were incubated in a water bath at 100° C. for 15 min. The samples were then incubated in an ice bath for 5 min and centrifuged at 14000 g for 1 min at 4° C., and the supernatants were mixed well as loading samples for the Western Blot assay. The samples were loaded into wells of a 10% precast gel (KeyGEN) with a loading volume of 10 μL (total protein: 5 μg), a sufficient Tris-MOPS-SDS running buffer (Adamas) was added, and then electrophoresis was performed at a constant voltage of 120 V for 55 min. After the electrophoresis, the proteins on the gel were transferred to PVDF membranes at a constant current of 250 mA for 55 min. After the membrane transfer, the PVDF membranes were incubated in 1× Quick Block blocking buffer (Beyotime)at room temperature for 30 min. After the blocking, the PVDF membranes were separately incubated at 4° C. overnight with the KRAS antibody (Abcam) diluted in a ratio of 1:1000 and the β-actin antibody (Abcam) diluted in a ratio of 1:2000 in 5% BSA as the diluent, and then washed with 1×TBST buffer (2.4 g of Tris, 8.8 g of NaCl, 1.5 mL of Tween 20, with pH adjusted to 7.4, with the volume brought to 1 L) 3 times for 10 min/time. The membranes were incubated with a secondary antibody (Abcam) diluted in 5% BSA at room temperature for 2 h, and then washed with 1×TBST buffer 3 times for 10 min/time. Finally, the membranes were incubated with Clarity Western ECL Substrate (BIO-RAD) for 5 min for luminescence and color development, and a ChemiScope 6200 Touch chemiluminescence imaging system (Clinx) was used for color development and protein mapping. Gray value analysis of the protein maps was performed using the chemiluminescence analysis software (Clinx). […]

[5] = target: T2, KRAS G12V protein in SW620 cells (Homo sapiens, UniProt P01116, G12V); test: KRAS degradation assay (Western Blot) in SW620 cells; conditions: for DC50: 24 h; for Dmax: SW-620, 24 h
T2 construct: endogenous in cells; host or cells: SW620
Description: as §4, §5, §6

[6] = tested on: KRAS G12C mutant human non-small cell lung cancer cell NCI-H358; test: 3D cell proliferation inhibition assay, NCI-H358; conditions: NCI-H358, 168 h, 3D culture, 7 days, CTG
Description: as §1, §2, §3

[7] = tested on: KRAS G12V mutant human colorectal cancer cell SW620; test: 3D cell proliferation inhibition assay, SW620; conditions: SW-620, 168 h, 3D culture, 7 days, CTG
Description: as §1, §2, §3

[8] = tested on: KRAS G13D mutant human colorectal cancer epithelial cell DLD-1; test: 3D cell proliferation inhibition assay, DLD-1; conditions: DLD-1, 168 h, 3D culture, 7 days, CTG
Description: as §1, §2, §3

T1 sequence (P01116 1-188 isoform P01116-2 G12V): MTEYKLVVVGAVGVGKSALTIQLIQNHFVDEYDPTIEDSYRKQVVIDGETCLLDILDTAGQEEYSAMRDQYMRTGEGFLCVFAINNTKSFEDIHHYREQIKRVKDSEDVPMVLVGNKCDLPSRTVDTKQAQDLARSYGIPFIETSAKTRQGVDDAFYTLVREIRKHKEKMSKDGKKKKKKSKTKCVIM
T2 sequence (P01116 1-188 isoform P01116-2 G12V): as above

IC50 [1] [nM] | IC50 [2] [nM] | IC50 [3] [nM] | DC50 [4] [nM] | Dmax [4] [%] | DC50 [5] [nM] | Dmax [5] [%] | IC50 [6] [nM] | IC50 [7] [nM] | IC50 [8] [nM] | SMILES
100 to 500 | ≤ 50 | ≤ 50 |  |  |  |  |  |  |  | C#Cc1c(F)ccc2cc(O)cc(-c3ncc4c(N5CCCCCC5)nc(OCC5(CN6CCN(CC7CCC8(CC7)CCN(C(=O)c7ccc(C)c(N9CCC(=O)NC9=O)c7)CC8)CC6)CC5)nc4c3F)c12 [Example 37, 1-(5-(9-((4-((1-(((4-(azepan-1-yl)-7-(8-ethynyl-7-fluoro-3-hydroxynaphthalen-1-yl)-8-fluoropyrido[4,3-d]pyrimidin-2-yl)oxy)methyl)cyclopropyl)methyl)piperazin-1-yl)methyl)-3-azaspiro[5.5]undecane-3-carbonyl)-2-methylphenyl)dihydropyrimidine-2,4(1H,3H)-dione]
50 to 100 | 100 to 500 | ≤ 50 | ≤ 50 | 80 to 100 |  |  |  |  |  | C#Cc1cccc2cc(O)cc(-c3ncc4c(N5CCC[C@@](C)(O)C5)nc(OCC5(CN6CCC(CCOCC7CCN(C(=O)c8ccc(OC)c(N9CCC(=O)NC9=O)c8)CC7)CC6)CC5)nc4c3F)c12 [Example 38, (R)-1-(5-(4-((2-(1-((1-(((7-(8-ethynyl-3-hydroxynaphthalen-1-yl)-8-fluoro-4-(3-hydroxy-3-methylpiperidin-1-yl)pyrido[4,3-d]pyrimidin-2-yl)oxy)methyl)cyclopropyl)methyl)piperidin-4-yl)ethoxy)methyl)piperidine-1-carbonyl)-2-methoxyphenyl)dihydropyrimidine-2,4(1H,3H)-dione]
50 to 100 | ≤ 50 | 50 to 100 | ≤ 50 | 80 to 100 |  |  |  |  |  | C#Cc1c(F)ccc2cc(O)cc(-c3ncc4c(N5CCC[C@@](C)(O)C5)nc(OCC5(CN6CCN(CCC#CC7CCN(C(=O)c8ccc(Cl)c(N9CCC(=O)NC9=O)c8)CC7)CC6)CC5)nc4c3F)c12 [Example 43, (R)-1-(2-chloro-5-(4-(4-(4-((1-(((7-(8-ethynyl-7-fluoro-3-hydroxynaphthalen-1-yl)-8-fluoro-4-(3-hydroxy-3-methylpiperidin-1-yl)pyrido[4,3-d]pyrimidin-2-yl)oxy)methyl)cyclopropyl)methyl)piperazin-1-yl)but-1-yn-1-yl)piperidine-1-carbonyl)phenyl)dihydropyrimidine-2,4(1H,3H)-dione]
176 |  | 102 |  |  | 11.8 | 95.2 | 32.9 | 22 | 54.3 | C#Cc1c(F)ccc2cc(O)cc(-c3ncc4c(N5CCCC(F)(F)C5)nc(OCC5(CN6CCN(CC7CCC8(CC7)CCN(C(=O)c7ccc(OC)c(N9CCC(=O)NC9=O)c7)CC8)CC6)CC5)nc4c3F)c12 [Example 72, 1-(5-(9-((4-((1-(((4-(3,3-difluoropiperidin-1-yl)-7-(8-ethynyl-7-fluoro-3-hydroxynaphthalen-1-yl)-8-fluoropyrido[4,3-d]pyrimidin-2-yl)oxy)methyl)cyclopropyl)methyl)piperazin-1-yl)methyl)-3-azaspiro[5.5]undecane-3-carbonyl)-2-methoxyphenyl)dihydropyrimidine-2,4(1H,3H)-dione]
21.2 |  | 5.23 |  |  | 14.2 | 89.2 | 6.63 | 7.01 | 9.98 | C#Cc1c(F)ccc2cc(O)cc(-c3ncc4c(N5CCC[C@@](C)(O)C5)nc(OCC(C)CN5CCN(CC6CCC7(CC6)CCN(C(=O)c6ccc(OC)c(N8CCC(=O)NC8=O)c6)CC7)CC5)nc4c3F)c12 (stereo partly drawn) [Example 86, 1-(5-(9-((4-(3-((7-(8-ethynyl-7-fluoro-3-hydroxynaphthalen-1-yl)-8-fluoro-4-((R)-3-hydroxy-3-methylpiperidin-1-yl)pyrido[4,3-d]pyrimidin-2-yl)oxy)-2-methylpropyl)piperazin-1-yl)methyl)-3-azaspiro[5.5]undecane-3-carbonyl)-2-methoxyphenyl)dihydropyrimidine-2,4(1H,3H)-dione]
19.9 |  |  |  |  | 21.7 | 100 | 3.83 | 4.85 | 12.8 | C#Cc1c(F)ccc2cc(O)cc(-c3ncc4c(N5CCC[C@@](C)(O)C5)nc(OC[C@H](C)CN5CCN(CC6CCC7(CC6)CCN(C(=O)c6cc(N8CCC(=O)NC8=O)c(C)cc6F)CC7)CC5)nc4c3F)c12 [Example 162, 1-(5-(9-((4-((R)-3-((7-(8-ethynyl-7-fluoro-3-hydroxynaphthalen-1-yl)-8-fluoro-4-((R)-3-hydroxy-3-methylpiperidin-1-yl)pyrido[4,3-d]pyrimidin-2-yl)oxy)-2-methylpropyl)piperazin-1-yl)methyl)-3-azaspiro[5.5]undecane-3-carbonyl)-4-fluoro-2-methylphenyl)dihydropyrimidine-2,4(1H,3H)-dione]

— US20260167622A1, “PAN-KRAS DEGRADING AGENT, AND PREPARATION METHOD THEREFOR AND USE THEREOF” (LEADINGTAC PHARMACEUTICAL (SHAOXING) CO., LTD., priority 2022, published 2026)
